From patent US20240197712A1, “TGF-BETA INHIBITION FOR IMMUNODEFICIENCY VIRUS REACTIVATION FROM LATENCY, ENHANCEMENT OF IMMUNODEFICIENCY VIRUS-SPECIFIC RESPONSES AND IMMUNODEFICIENCY VIRUS CURE” (Northwestern University, priority 2022, published 2024)

How the values were obtained:
[1] = system: ACH-2 cells; experiment: PMA-induced HIV reactivation in ACH-2 cells, intracellular p24 staining; assay type: cell-based
Method: ACH2 cells and U1 cells were obtained through the NIH HIV Reagent Program, Division of AIDS, NIAID, NIH (contributed by Dr. Thomas Folks). […] In the HIV latency reactivation conditions, PMA (Phorbol 12-myristate 13-acetate, SigmaAldrich) was added at 100 ng/ml together with galunisertib or TGF-β1. After 18 hrs, cells were stained intracellularly for p24 using the KC57 antibody (NIH HIV Reagent Program) as previously described (74).

[2] = system: PBMC from aviremic, ART-treated PLWH; experiment: Modified quantitative viral outgrowth assay (qVOA) with LRA; assay type: cell-based, human
Description: Considering that TGF-β is present in FBS, used to supplement PBMC and T cell cultures, and that PBMC from people living with HIV-1 release TGF-β in culture supernatants (56-58), we hypothesized that blocking TGF-β while reversing HIV-1 latency ex vivo from PBMC of ART-treated, aviremic individuals may lead to higher frequency of HIV-1 reactivation than in untreated cultures. To test this hypothesis, we used a modified version of the classical quantitative viral outgrowth assay (qVOA) (59). We used whole PBMC to assess potential latency reactivation from any HIV-1-infected circulating cell and not only from resting CD4+ T cells (FIG. 6A). PBMC from two different sets of aviremic, ART-treated donors (Table 1) were activated with PMA (at 100 ng/ml or 10 ng/ml) and with Vorinostat (SAHA, at 1 μM) in presence of T20 and galunisertib (1 μM) or mock solution. […] Infectious unit per million cells (IUPM) were calculated based on the number of infected wells as determined by p24 ELISA (FIG. 6A). […]
PBMC were thawed and cultured in RPMI 10% FBS at 3×10^6/ml. […] 50 μl of supernatant was collected after 7, 14 and 21 days of co-culture and monitored for p24 presence by p24 ELISA (PerkinElmer). IUPM were calculated based on the number of positive wells using the IUPM calculator provided by Dr. Siliciano (76). […]

[3] = Galunisertib plasma pharmacokinetics by LCMS; assay type: in vivo, rhesus macaques
Method: Eight naïve macaques (FIG. 9) were used to collect plasma and PBMC for PK/PD studies. 4 macaques received galunisertib (2.5 mg/kg, n=2 or 5 mg/kg, n=2) once and blood was collected at 1 hr, 3 hr and 6 hrs, 24 hrs and 48 hrs. 4 macaques received galunisertib (2.5 mg/kg, n=2 or 5 mg/kg, n=2) twice daily for 9 days and samples were collected 1 hr, 3 hr and 8 hrs after administration on day 1 and on day 9 right before and 1 hr and 3 and 6 hrs after the last administration. Plasma concentrations of galunisertib were measured by IMSERC (Integrated Molecular Structure Education and Research Center) utilizing liquid chromatography mass spectrometry (Shimadzu Kyoto, Japan ultra-high performance liquid chromatography—UHPLC—system and SCIEX Framingham, MA Qtrap 6500+ triple quadrupole mass spectrometer). All standard, quality controls (QC) and experimental samples were prepared and ran in duplicate using 20 μL of plasma (spiked with galunisertib if a standard or QC) adding 15 μL of 8% phosphoric acid solution, 200 μL of acetonitrile (to crash plasma proteins) spiked with tramadol as an internal standard. The standard curve was prepared as a 10-point curve from 1.0 to 1,000 ng/ml with three QCs. […] All samples and standards were processed in duplicate with the average area under the curve (AUC) being used for quantitation reporting. […] The resulting limit of quantitation (LOQ) was 1.0 ng/ml.

[4] = Plasma cytokines and chemokines (MSD 24-plex); assay type: in vivo, rhesus macaques
Method: Cytokines in plasma (at 1:2 dilution) were measured using the NHP Cytokine 24-Plex kit by Meso Scale Diagnostics (MSD) according to manufacturer instructions. Frozen PBMC collected at week 6 post-infection (pre-ART), right before the first galunisertib administration (BC1), at the end of cycle 1 (AC1) and at the end of cycle 3 (AC3) were thawed in AIM V medium (ThermoFisher) with benzonase (Sigma) and plated on a FluoroSpot (CTL) plate pre-activated with 70% Ethanol and IFN-γ, TNF-α and IL-2 capture solution. Gag, pol, and env 15-mer peptides (NIH AIDS Reagents program) were prepared at two times the final concentration of 2.5 μg/ml with co-stimulatory reagents anti-CD28 10 μg/ml and anti-CD49d 10 μg/ml and added to the cells in CTL-Test™ Medium. Parallel positive […] control of PMA (20 ng/ml) and ionomycin (200 ng/mL) or mock DMSO solution was also plated with the stimulatory reagents. PBMCs were added at 300,000 cells per well. After 24 hrs, the plate was washed, and incubated with detection and tertiary solutions and shipped to CTL for scanning and QC.

Cc1cccc(-c2nn3c(c2-c2ccnc4ccc(C(N)=O)cc24)CCC3)n1 [galunisertib, Galunisertib]
frequency of p24-gag+ cells in TGF-β1-treated cultures ([1]; ACH-2 cells, TGF-β1 + galunisertib 1 μM): restore frequency of p24-gag+ cells
frequency of p24-gag+ cells versus PMA-stimulated cultures ([1]; ACH-2 cells, galunisertib in absence of exogenous TGF-β1, medium with FBS): increase it above PMA-stimulated cultures
effect on p24+ cells in X-Vivo 15 medium without FBS ([1]; control experiments, U1 and ACH-2, no FBS): absent
frequency of latency reactivation events (IUPM) ([2]; galunisertib 1 μM vs mock, PMA 100 or 10 ng/ml or Vorinostat 1 μM): significantly higher frequency
vRNA in supernatant after PMA stimulation ([2]; galunisertib-treated PBMC vs mock treated): higher levels of vRNA
concentration in blood of macaques lower than average concentration in human plasma after similar dosing ([3]; macaque vs human plasma): at least 10 fold
PK in rhesus macaques compared with humans ([3]; naïve animals, oral 2.5 or 5 mg/kg): substantially lower than in humans
concentrations of inflammatory chemokines and cytokines in plasma ([4]; before and after first 2 cycles and end of last cycle): no changes
IL-10 in plasma ([4]; end of the last cycle vs before treatment): small increase
